Reference: article PMC12188297 (2025)

Tests used:
[1] = test system: flexible GA-rich RNA, 5'-U(GAAG)2GU (RNA, single strand) UGAAGGAAGGU; assay: fluorescence polarization (intrinsic ligand fluorescence); conditions: Na+ 50 mM; 25 mM MES, 0.002% Triton X, pH 6.1, 25 °C, 0.1 μM ligand
[2] = test system: flexible GA-rich RNA, 5'-U(GAAG)2GU (RNA, single strand) UGAAGGAAGGU; assay: fluorescence polarization; conditions: Na+ 50 mM; 25 mM MES pH 6.1, 0.002% Triton X, 25 °C; ligand fluorescence

SMILES | Kd [1] [µM] | Kd [2] [µM]
CCN1CCN(c2ccc3cc(-c4cn5cc(C)nc(C)c5n4)c(=O)oc3c2)C[C@@H]1C | 14.1 ± 0.9 | –
CCn1c(=O)c(-c2cc(F)c3nc(C)cn3c2)cc2ccc(N3CCN[C@@H](C)C3)cc21 | – | 39.7 ± 11.5
CN1CCN(c2cc(F)c3cc(-c4ccc(Cl)cc4)c(=O)oc3c2)CC1 | – | 42.8 ± 2.7
CN1CCN(c2ccc3cc(-c4ccc(Cl)cc4)c(=O)oc3c2)CC1 | – | 37.2 ± 1.0
COc1c(N2CCN[C@@H](C)C2)ccc2cc(-c3cc(F)c4nc(C)cn4c3)c(=O)n(C)c12 | 22.1 ± 2.7 | –
COc1ccc2nc(-c3cc4ccc(N5CCNCC5)cc4oc3=O)cn2c1 | 29.7 ± 3.0 | –
COc1ccn2cc(-c3cc4ccc(N5CCNCC5)cc4oc3=O)nc2c1 | 10.7 ± 0.1 | –
COc1cn2cc(-c3cc4ccc(N5CCNCC5)cc4oc3=O)nc2cn1 | – | 39.6 ± 0.4
C[C@H]1CN(c2ccc3cc(-c4cc(F)c5c(cnn5C)c4)c(=O)oc3c2)CCN1 | – | 11.6 ± 0.01
C[C@H]1CN(c2ccc3cc(-c4cc(F)c5nn(C)cc5c4)c(=O)oc3c2)CCN1 | – | 12.6 ± 0.4
Cc1cn2cc(-c3cc4c(C)cc(N5CCN[C@@H](C)C5)cc4oc3=O)cc(F)c2n1 | – | 19.3 ± 0.9
Cc1cn2cc(-c3cc4ccc(N5CCN(C)CC5)cc4oc3=O)nc2c(C)n1 | – | 40.4 ± 6.5
Cc1cn2cc(-c3cc4ccc(N5CCN(CC6CCOCC6)[C@@H](C)C5)cc4oc3=O)cc(F)c2n1 | – | 12.0 ± 0.4
Cc1cn2cc(-c3cc4ccc(N5CCN[C@@H](C)C5)c(C)c4oc3=O)cc(F)c2n1 | – | 11.1 ± 2.8
Cc1cn2cc(-c3cc4ccc(N5CCN[C@@H](C)C5)cc4[nH]c3=O)cc(F)c2n1 | – | 33.3 ± 1.3
Cc1cn2cc(-c3cc4ccc(N5CCN[C@@H](C)C5)cc4n(-c4ccccc4)c3=O)cc(F)c2n1 | 78.1 ± 9.7 | –
Cc1cn2cc(-c3cc4ccc(N5CCN[C@@H](C)C5)cc4n(CC4CC4)c3=O)cc(F)c2n1 | – | 42.6 ± 15.2
Cc1cn2cc(-c3cc4ccc(N5CCN[C@@H](C)C5)cc4n(CCO)c3=O)cc(F)c2n1 | – | 40.1 ± 5.2
Cc1cn2cc(-c3cc4ccc(N5CCN[C@@H](C)C5)cc4n4cnnc34)cc(F)c2n1 | – | 16.4 ± 1.1
Cc1cn2cc(-c3nc4ccc(N5CCN[C@@H](C)C5)cc4s3)c(F)cc2n1 | 38.9 ± 6.6 | –
Cc1cn2cc(-c3nc4sc(N5CCN(C)CC5)cc4s3)cc(F)c2n1 | 35.7 ± 0.01 | –
Cc1nc2c(F)cc(-c3cc4ccc(N5CCN[C@@H](C)C5)cc4oc3=O)cc2o1 | > 100 | –
Cc1nccn2cc(-c3cc4ccc(N5CCN[C@@H](C)C5)cc4oc3=O)nc12 | – | 39.9 ± 11.5
O=c1oc2cc(N3CCNCC3)ccc2cc1-c1ccc2ccccc2c1 | – | 34.1 ± 0.6
O=c1oc2cc(N3CCNCC3)ccc2cc1-c1ccc2ncccc2c1 | – | 17.8 ± 3.9
O=c1oc2cc(N3CCNCC3)ccc2cc1-c1cn2ccc(C(F)(F)F)cc2n1 | 21.8 ± 0.2 | –
O=c1oc2cc(N3CCNCC3)ccc2cc1-c1cn2ccc(Cl)cc2n1 | 25.9 ± 6.0 | –
O=c1oc2cc(N3CCNCC3)ccc2cc1-c1cn2ccccc2n1 | 14.5 ± 1.3 | –

Next, values leading:

Kd [1] [µM] | Kd [2] [µM] | SMILES
3.06 ± 0.3 | – | CCN1CCN(c2ccc3cc(-c4cc(F)c5nc(C)cn5c4)c(=O)oc3c2)C[C@@H]1C
– | 19.3 ± 2.3 | CNC1CCN(c2ccc3cc(-c4cc(F)c5nc(C)cn5c4)c(=O)oc3c2)C1 (centres unmarked)
– | 16.7 ± 0.5 | CNC1CCN(c2ccc3cc(-c4cc(F)c5nc(C)cn5c4)c(=O)oc3c2)CC1
– | 32.0 ± 2.1 | Cc1cn2cc(-c3cc4ccc(N5CC6(CNC6)C5)cc4oc3=O)cc(F)c2n1
– | 10.7 ± 0.9 | Cc1cn2cc(-c3cc4ccc(N5CC6CC(C5)N6)cc4oc3=O)cc(F)c2n1
71.0 ± 2.3 | – | Cc1cn2cc(-c3cc4ccc(N5CC6CCC(C5)N6)cc4oc3=O)cc(F)c2n1
– | 13.5 ± 2.0 | Cc1cn2cc(-c3cc4ccc(N5CC6CCCNC6C5)cc4oc3=O)cc(F)c2n1 (centres unmarked)
– | 18.2 ± 1.9 | Cc1cn2cc(-c3cc4ccc(N5CC6CNCC6C5)cc4oc3=O)cc(F)c2n1 (centres unmarked)
– | 10.88 ± 0.3 | Cc1cn2cc(-c3cc4ccc(N5CCN(C)CC5)cc4oc3=O)cc(F)c2n1
2.7 ± 0.1 | – | Cc1cn2cc(-c3cc4ccc(N5CCN(CC6CC6)[C@@H](C)C5)cc4oc3=O)cc(F)c2n1
– | 14.3 ± 1.1 | Cc1cn2cc(-c3cc4ccc(N5CCN[C@@H](C)C5)cc4oc3=O)cc(F)c2n1
– | 11.9 ± 0.9 | Cc1cn2cc(-c3cc4ccc(N5CCN[C@@H](CO)C5)cc4oc3=O)cc(F)c2n1
– | 15.6 ± 0.7 | Cc1cn2cc(-c3cc4ccc(NC5CNC5)cc4oc3=O)cc(F)c2n1
